# Data taken from US20210024507A1, “Compounds” (Step Pharma S.A.S., priority 2018, published 2021).
# pIC50: −log10 of the molar value.
# Legend:
# human CTPS1 [1] = target: T1, human CTPS1 (Homo sapiens, UniProt P17812); experiment: Human CTPS1 enzyme inhibition (ADP-Glo Max assay); format: biochemical; settings: human full length CTPS1, 25° C., read-out: CTPS1 (Human CTPS1 Enzyme Inhibition, IC50 grouped by potency range)
# T1 construct: purchased Proteros biostructures GmbH
# T1 sequence (P17812 1-591): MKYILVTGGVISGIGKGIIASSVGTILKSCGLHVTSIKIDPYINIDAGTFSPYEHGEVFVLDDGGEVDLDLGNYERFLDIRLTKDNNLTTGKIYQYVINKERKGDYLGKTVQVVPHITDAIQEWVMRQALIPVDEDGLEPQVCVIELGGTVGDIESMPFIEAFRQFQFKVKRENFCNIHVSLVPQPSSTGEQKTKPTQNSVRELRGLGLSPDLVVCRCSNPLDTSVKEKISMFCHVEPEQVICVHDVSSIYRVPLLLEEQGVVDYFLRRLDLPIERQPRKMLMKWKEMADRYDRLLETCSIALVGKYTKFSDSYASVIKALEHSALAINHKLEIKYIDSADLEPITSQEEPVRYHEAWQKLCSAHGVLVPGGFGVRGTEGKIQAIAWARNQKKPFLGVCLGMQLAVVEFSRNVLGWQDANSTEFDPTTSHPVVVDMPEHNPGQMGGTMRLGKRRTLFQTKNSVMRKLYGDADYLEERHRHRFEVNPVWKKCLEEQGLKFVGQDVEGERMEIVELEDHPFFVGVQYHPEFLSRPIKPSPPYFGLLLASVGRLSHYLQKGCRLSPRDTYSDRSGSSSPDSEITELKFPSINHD
# In short: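 Full-length C-terminal FLAG-His-tagged CTPS1, preincubated 10 min at 25 °C with compound in 50mM Tris pH 8.0, 10mM MgCl2, 0.01% Tween-20, 2mM L-cysteine. Started with ATP 0.31mM, GTP 0.034mM, UTP 0.48mM, L-glutamine 0.186mM in substrate mix, run within linear phase at 25 °C. ADP via ADP-Glo Max luminescence; IC50 from % inhibition curve.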
# human CTPS1 [2] = experiment: RapidFire/MS-based enzyme selectivity assay, human CTPS1; format: biochemical; settings: calculated from the CTPS1 and CTPS2 IC50 values
# In short: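 Full-length C-terminal FLAG-His-tagged human CTPS1 (1-591) was preincubated 10 minutes at 25° C. with compound in 50 mM HEPES pH 8.0, 20 mM MgCl2, 5 mM KCl, 1 mM DTT and 0.01% Tween-20. Substrate mix contained 0.3 mM ATP, 0.2 mM UTP, 0.07 mM GTP and 0.1 mM L-glutamine, and the reaction ran in its linear phase at 25° C. before formic acid stop. CTP was measured by RapidFire MS relative to ^13C9-^15N3-CTP, and IC50 came from percent inhibition curves.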
Compound,pIC50 (human CTPS1 [1]),Selectivity (fold selectivity between CTPS1 and CTPS2) (human CTPS1 [2])
"CCC(C(=O)Nc1ccc(-c2cncc(OCC(F)(F)F)n2)cc1)c1ccnc(NS(=O)(=O)C2CC2)n1 (stereo not drawn) [P108, 2-(2-(cyclopropanesulfonamido)pyrimidin-4-yl)-N-(4-(6-(2,2,2-trifluoroethoxy)pyrazin-2-yl)phenyl)butanamide]",≥ 7.00,+++ (>60 fold (+++))
"CCOc1cncc(-c2ccc(NC(=O)C(CCOC)c3ccnc(NS(=O)(=O)C4CC4)n3)cc2)n1 (stereo not drawn) [P110, 2-(2-(cyclopropanesulfonamido)pyrimidin-4-yl)-N-(4-(6-ethoxypyrazin-2-yl)phenyl)-4-methoxybutanamide]",≥ 7.00,++ (>30-60 fold (++))
"CCOc1cncc(-c2ccc(NC(=O)C(CC)c3cccc(NS(=O)(=O)C4CC4)n3)nc2)n1 (stereo not drawn) [P188, 2-(6-(cyclopropanesulfonamido)pyridin-2-yl)-N-(5-(6-ethoxypyrazin-2-yl)pyridin-2-yl)butanamide]",≥ 7.00,++ (>30-60 fold (++))
"CCOc1cncc(-c2ccc(NC(=O)C(CC)c3cccc(NS(=O)(=O)C4CC4)n3)cc2)n1 (stereo not drawn) [P191, 2-(6-(cyclopropanesulfonamido)pyridin-2-yl)-N-(4-(6-ethoxypyrazin-2-yl)phenyl)butanamide]",6.00 to 7.00,++ (>30-60 fold (++))
"CCOc1cncc(-c2ccc(NC(=O)C(C)(CCOC)c3cncc(NS(=O)(=O)C4CC4)n3)nc2)n1 (stereo not drawn) [P198, 2-(6-(cyclopropanesulfonamido)pyrazin-2-yl)-N-(5-(6-ethoxypyrazin-2-yl)pyridin-2-yl)-4-methoxy-2-methylbutanamide]",≥ 7.00,+++ (>60 fold (+++))
"CCOc1cncc(-c2ccc(NC(=O)C(F)(CC)c3cncc(NS(=O)(=O)C4CC4)n3)nc2)n1 (stereo not drawn) [P200, 2-(6-(cyclopropanesulfonamido)pyrazin-2-yl)-N-(5-(6-ethoxypyrazin-2-yl)pyridin-2-yl)-2-fluorobutanamide]",≥ 7.00,++ (>30-60 fold (++))
"CCOc1cncc(-c2ccc(NC(=O)C(CC)c3cncc(NS(=O)(=O)C4CC4)n3)nc2)n1 (stereo not drawn) [P201, 2-(6-(cyclopropanesulfonamido)pyrazin-2-yl)-N-(5-(6-ethoxypyrazin-2-yl)pyridin-2-yl)butanamide]",≥ 7.00,+++ (>60 fold (+++))
"CCOc1cncc(-c2ccc(NC(=O)C(CC)c3cncc(NS(=O)(=O)C4CC4)n3)cc2)n1 (stereo not drawn) [P202, 2-(6-(cyclopropanesulfonamido)pyrazin-2-yl)-N-(4-(6-ethoxypyrazin-2-yl)phenyl)butanamide]",≥ 7.00,+++ (>60 fold (+++))
"CCOc1cncc(-c2ccc(C(=O)NC(CC)c3ccnc(NS(=O)(=O)C4CC4)n3)c(F)c2)n1 (stereo not drawn) [P216, N-(1-(2-(cyclopropanesulfonamido)pyrimidin-4-yl)propyl)-4-(6-ethoxypyrazin-2-yl)-2-fluorobenzamide]",≥ 7.00,+++ (>60 fold (+++))
